The record followed here is patent US6677333B1, “2H-phthalazin-1-one derivatives and drug containing its derivatives as active ingredient” (Ono Pharmaceutical Co., Ltd., priority 1999, dated 2004).

SMILES strings stand for the structures. Where a name gives a salt, the structure may show the parent alone.

For this assay, the target named is T1, PARP (Homo sapiens, UniProt P09874).
T1 construct: purchased TREVIGEN
Briefly: Enzyme assay in vitro (PARP inhibitory activity). In kind it is biochemical. The conditions noted are these: PARP (TREVIGEN), activated DNA, 10 minutes reaction, 100% of control = distilled water; example 5 tested as trifluoro acetate. On the procedure:
The below procedure was carried out with 96 well plate. The reaction mixture contained 50 mM Tris/HCl (pH 8.0, WAKO), 10 mM MgCl2, 5 mM dithiothreitol (sigma), and 0.5 mg/mL activated DNA in 80 μL. The 10 μL of test compound was added to the reaction mixture and the reaction was started by addition of 10 μL of […] PARP (TREVIGEN). The reaction was terminated at 10 minutes by addition of 100 μL of 20% trichloroacetic acid. The reaction product was collected on a glass fiber filter (GF/C, PACKARD). The radioactivity was measured by topcount (PACKARD). Inhibitory activity of the compound was represented by 50% inhibitory concentration (IC50) calculated 100% of control (distilled water).

Usually IC50 stands for the point on the concentration scale where inhibition reaches its midpoint. A low value points to greater potency in that assay.

T1 sequence (P09874 whole entry): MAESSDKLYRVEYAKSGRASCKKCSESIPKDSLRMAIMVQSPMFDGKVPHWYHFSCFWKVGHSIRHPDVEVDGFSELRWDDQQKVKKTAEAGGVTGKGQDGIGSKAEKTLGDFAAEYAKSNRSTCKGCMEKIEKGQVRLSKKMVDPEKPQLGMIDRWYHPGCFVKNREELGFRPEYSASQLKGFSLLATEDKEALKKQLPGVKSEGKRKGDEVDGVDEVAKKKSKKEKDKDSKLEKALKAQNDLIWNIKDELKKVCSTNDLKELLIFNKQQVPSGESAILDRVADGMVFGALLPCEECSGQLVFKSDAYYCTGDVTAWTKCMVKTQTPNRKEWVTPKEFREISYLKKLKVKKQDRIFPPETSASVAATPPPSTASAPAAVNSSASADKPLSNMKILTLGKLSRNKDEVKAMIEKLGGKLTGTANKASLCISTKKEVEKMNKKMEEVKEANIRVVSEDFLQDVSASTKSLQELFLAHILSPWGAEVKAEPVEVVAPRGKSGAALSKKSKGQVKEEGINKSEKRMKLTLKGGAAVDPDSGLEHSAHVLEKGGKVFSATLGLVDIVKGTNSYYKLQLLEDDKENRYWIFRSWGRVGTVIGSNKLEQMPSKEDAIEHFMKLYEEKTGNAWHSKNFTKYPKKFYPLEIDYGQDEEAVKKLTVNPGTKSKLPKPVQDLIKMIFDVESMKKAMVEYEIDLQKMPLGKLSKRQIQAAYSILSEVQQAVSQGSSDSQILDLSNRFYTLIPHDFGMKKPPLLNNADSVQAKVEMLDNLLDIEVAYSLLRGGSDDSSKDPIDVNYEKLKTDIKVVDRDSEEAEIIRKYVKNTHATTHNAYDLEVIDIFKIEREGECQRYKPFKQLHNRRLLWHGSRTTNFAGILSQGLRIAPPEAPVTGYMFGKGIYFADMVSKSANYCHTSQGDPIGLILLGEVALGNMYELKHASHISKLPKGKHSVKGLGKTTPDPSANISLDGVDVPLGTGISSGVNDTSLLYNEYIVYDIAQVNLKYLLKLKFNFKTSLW

The compound `NCCSCC(=O)Nc1cccc(-c2n[nH]c(=O)c3ccccc23)c1` [5(10), 4-(3-(2-(2-Aminoethylthio)acetylamino)phenyl)-2H-phthalazin-1-one Hydrochloride] displayed an IC50 of 50 nM.

Turning to `NCCCCC(=O)Nc1cccc(-c2n[nH]c(=O)c3ccccc23)c1` [compound 5], the IC50 worked out at 42 nM.
